Biological target: Bifunctional dihydrofolate reductase-thymidylate synthase (Plasmodium falciparum K1, UniProt P13922)
Test: TBD: TBD
Set-up: species or system Isolate K1 / Thailand

Chain of Bifunctional dihydrofolate reductase-thymidylate synthase (P13922 whole entry): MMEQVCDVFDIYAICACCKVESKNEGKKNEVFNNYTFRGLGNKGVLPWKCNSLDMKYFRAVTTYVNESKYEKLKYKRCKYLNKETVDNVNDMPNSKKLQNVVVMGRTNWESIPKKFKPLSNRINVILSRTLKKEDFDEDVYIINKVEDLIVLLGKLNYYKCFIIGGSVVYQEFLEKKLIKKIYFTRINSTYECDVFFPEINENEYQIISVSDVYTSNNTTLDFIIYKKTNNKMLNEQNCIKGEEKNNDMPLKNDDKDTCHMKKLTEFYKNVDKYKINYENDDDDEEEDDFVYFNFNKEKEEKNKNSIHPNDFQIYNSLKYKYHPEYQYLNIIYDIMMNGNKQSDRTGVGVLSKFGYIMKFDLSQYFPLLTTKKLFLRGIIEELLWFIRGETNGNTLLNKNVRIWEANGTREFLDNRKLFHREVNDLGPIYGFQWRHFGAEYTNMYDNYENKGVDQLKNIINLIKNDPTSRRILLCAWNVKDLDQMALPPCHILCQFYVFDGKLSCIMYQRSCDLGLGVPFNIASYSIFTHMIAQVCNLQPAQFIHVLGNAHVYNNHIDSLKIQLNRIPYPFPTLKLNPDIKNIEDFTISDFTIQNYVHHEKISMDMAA

Nc1ncc(N2CCN(c3cccc(C4CCOCC4)c3)CC2)c(N)n1
IC50: 1.1 nM

Reference: ChEMBL document CHEMBL5729483, “Compositions and methods for treating infections” (2022)
